Test results as given in patent publication US20220050096A1, “ANALYTE-SENSITIVE PROBES AND CONTACT LENS FOR DIAGNOSIS OF OCULAR PATHOLOGIES” (University Of Maryland, Baltimore, priority 2020, published 2022).

Assay: Chloride-dependent intensity decay analysis of SPQ-C18 in Biofinity contact lenses, phosphate buffer pH 7.2
Format: physicochemical
Experimental: Fluorescence Spectroscopic Measurements. Fluorescence intensities and intensity decays were measured using a Varian™ Eclipse 4 spectrofluorometer and a FluoTime300 instrument from PicoQuant™ (Berlin, Germany) and analyzed with the EasyTau™ software. The excitation source was a 473 nm laser diode with a repetition rate of 40 MHZ and a pulse width less than 100 ps. In other embodiments, the excitation source for SG-PL was at 495 nm from a Solea™ supercontinuum laser (PicoQuant™, Germany) and a 375 nm laser diode (PDL 375, PicoQuant™), a repetition rate of 40 MHz, and a pulse width less than 100 ps. Some intensity and lifetime measurements for SG-PL (as indicated) were performed using Alba V confocal fluorescence lifetime microscopy, FLIM (ISS, Urbana, Ill.), with excitation source of a 473 nm laser diode with a repetition rate of 40 MHz and a pulse width near 250 ps.
Intensity decays were measured at the emission maximum with the band of 10 to 20 nm, analyzed in terms of the multi-exponential model:
I(t)=Σαi exp(−t/ti) (equation 1)
where ti are the individual decay times and αi the initial time-zero amplitudes. The mean decay time can be represented in two ways. The average lifetime is given by:
where Σαi=1.0 and Σfi=1.0. The term fi=αi τi is proportional to the fractional contribution of each component to the total intensity decay. The term τi/Σαi τi is the fractional contribution to the steady state emission. Here, we use the amplitude-weighted lifetime given by
which is appropriate when the emission is from a single fluorophore with a changing quantum yield. For a single exponential decay, the lifetime is given by τ=1.0/(knr+Γ) and the quantum yield is given by Q=Γ/(knr+Γ) where knr is the sum of all non-radiative decay rates and Γ is the radiative decay rate. The value of Γ is determined by the molecular extinction coefficient that remains constant under most conditions. For a single type of fluorophore with a constant value of Γ the normalized αi values represent the molecular fraction of each decay time component. The value of αi and τi were determined by non-linear least squares fitting using PicoQuant™ software.
Quenching by Chloride. Collisional quenching occurs, for example, when SPQ-C18 (also referred to as OD-MQB (N-Octadecyl-6-methoxyquinolinium bromide)) has a diffusion collision with a chloride ion. The intensities (I) and lifetimes (6) are analyzed using the Stern-Volmer equation,
SPQ-C18 was synthesized using 6-methoxy quinolinium (SPQ) and 1-bromooctadecane (C18) as described in the art. Lenses were labeled by incubation with 3 ml of a 1 μM solution of SPQ-C18 in methanol-water. SPQ-C18 bound rapidly to the Biofinity™ lenses. […] Unless stated otherwise, all spectral measurements conducted for the present study were performed in 20 mM MOPS buffer, 8 mM KCl, pH 7.2, at room temperature.

**Q.** For CCCCCCCCCCCCCCCCCC[n+]1cccc2cc(OC)ccc21 [SPQ-C18, N-Octadecyl-6-methoxyquinolinium bromide], which f1 (NaCl 0 mM) is on record?
**A.** Its f1 is 0.02.

**Q.** What about the f2 (NaCl 0 mM) of the same molecule?
**A.** Its f2 is 0.10.

**Q.** What about the f3 (NaCl 0 mM) of the same molecule?
**A.** Its f3 is 0.88.

**Q.** And the α1 (NaCl 0 mM)?
**A.** Its α1 is 0.36.

**Q.** And the α2 (NaCl 0 mM)?
**A.** The α2 was 0.21.

**Q.** What about the α3 (NaCl 0 mM) of the same molecule?
**A.** The α3 was 0.44.

**Q.** What about the τ1 (NaCl 0 mM) of the same molecule?
**A.** Its τ1 is 0.69 ns.

**Q.** What about the τ2 (NaCl 0 mM) of the same molecule?
**A.** The τ2 was 5.15 ns.

**Q.** And the τ3 (NaCl 0 mM)?
**A.** The τ3 was 20.74 ns.

**Q.** What about the τf (NaCl 0 mM) of the same molecule?
**A.** The τf was 18.66 ns.

**Q.** And the τα (NaCl 0 mM)?
**A.** Its τα is 10.35 ns.

**Q.** And the f1 (NaCl 20 mM)?
**A.** Its f1 is 0.03.

**Q.** What about the f2 (NaCl 20 mM) of the same molecule?
**A.** Its f2 is 0.13.

**Q.** And the f3 (NaCl 20 mM)?
**A.** Its f3 is 0.84.

**Q.** What about the α1 (NaCl 20 mM) of the same molecule?
**A.** The α1 was 0.41.

**Q.** And the α2 (NaCl 20 mM)?
**A.** Its α2 is 0.21.

**Q.** What about the α3 (NaCl 20 mM) of the same molecule?
**A.** The α3 was 0.38.

**Q.** And the τ1 (NaCl 20 mM)?
**A.** Its τ1 is 0.65 ns.

**Q.** And the τ2 (NaCl 20 mM)?
**A.** Its τ2 is 4.98 ns.

**Q.** What about the τ3 (NaCl 20 mM) of the same molecule?
**A.** Its τ3 is 17.88 ns.

**Q.** What about the τf (NaCl 20 mM) of the same molecule?
**A.** The τf was 15.65 ns.

**Q.** And the τα (NaCl 20 mM)?
**A.** Its τα is 8.08 ns.

**Q.** What about the f1 (NaCl 50 mM) of the same molecule?
**A.** Its f1 is 0.03.

**Q.** And the f2 (NaCl 50 mM)?
**A.** Its f2 is 0.22.

**Q.** What about the f3 (NaCl 50 mM) of the same molecule?
**A.** Its f3 is 0.75.

**Q.** And the α1 (NaCl 50 mM)?
**A.** Its α1 is 0.38.

**Q.** And the α2 (NaCl 50 mM)?
**A.** Its α2 is 0.29.

**Q.** What about the α3 (NaCl 50 mM) of the same molecule?
**A.** The α3 was 0.33.

**Q.** What about the τ1 (NaCl 50 mM) of the same molecule?
**A.** The τ1 was 0.73 ns.

**Q.** What about the τ2 (NaCl 50 mM) of the same molecule?
**A.** Its τ2 is 5.54 ns.

**Q.** What about the τ3 (NaCl 50 mM) of the same molecule?
**A.** The τ3 was 16.81 ns.

**Q.** What about the τf (NaCl 50 mM) of the same molecule?
**A.** The τf was 13.76 ns.

**Q.** And the τα (NaCl 50 mM)?
**A.** Its τα is 7.38 ns.

**Q.** And the f1 (NaCl 90 mM)?
**A.** Its f1 is 0.05.

**Q.** And the f2 (NaCl 90 mM)?
**A.** The f2 was 0.26.

**Q.** What about the f3 (NaCl 90 mM) of the same molecule?
**A.** Its f3 is 0.68.

**Q.** What about the α1 (NaCl 90 mM) of the same molecule?
**A.** The α1 was 0.43.

**Q.** What about the α2 (NaCl 90 mM) of the same molecule?
**A.** The α2 was 0.31.

**Q.** What about the α3 (NaCl 90 mM) of the same molecule?
**A.** Its α3 is 0.26.

**Q.** What about the τ1 (NaCl 90 mM) of the same molecule?
**A.** Its τ1 is 0.75 ns.

**Q.** What about the τ2 (NaCl 90 mM) of the same molecule?
**A.** The τ2 was 5.33 ns.

**Q.** And the τ3 (NaCl 90 mM)?
**A.** Its τ3 is 16.41 ns.

**Q.** What about the τf (NaCl 90 mM) of the same molecule?
**A.** The τf was 12.49 ns.

**Q.** What about the τα (NaCl 90 mM) of the same molecule?
**A.** The τα was 6.18 ns.

**Q.** What about the f1 (NaCl 140 mM) of the same molecule?
**A.** The f1 was 0.06.

**Q.** What about the f2 (NaCl 140 mM) of the same molecule?
**A.** The f2 was 0.31.

**Q.** And the f3 (NaCl 140 mM)?
**A.** Its f3 is 0.62.

**Q.** What about the α1 (NaCl 140 mM) of the same molecule?
**A.** The α1 was 0.44.

**Q.** What about the α2 (NaCl 140 mM) of the same molecule?
**A.** The α2 was 0.33.

**Q.** What about the α3 (NaCl 140 mM) of the same molecule?
**A.** Its α3 is 0.22.

**Q.** What about the τ1 (NaCl 140 mM) of the same molecule?
**A.** The τ1 was 0.82 ns.

**Q.** What about the τ2 (NaCl 140 mM) of the same molecule?
**A.** The τ2 was 5.43 ns.

**Q.** And the τ3 (NaCl 140 mM)?
**A.** Its τ3 is 16.26 ns.

**Q.** And the τf (NaCl 140 mM)?
**A.** The τf was 11.91 ns.

**Q.** What about the τα (NaCl 140 mM) of the same molecule?
**A.** Its τα is 5.81 ns.

**Q.** What about the f1 (NaCl 200 mM) of the same molecule?
**A.** Its f1 is 0.08.

**Q.** And the f2 (NaCl 200 mM)?
**A.** Its f2 is 0.34.

**Q.** What about the f3 (NaCl 200 mM) of the same molecule?
**A.** Its f3 is 0.58.

**Q.** And the α1 (NaCl 200 mM)?
**A.** The α1 was 0.48.

**Q.** What about the α2 (NaCl 200 mM) of the same molecule?
**A.** The α2 was 0.34.

**Q.** What about the α3 (NaCl 200 mM) of the same molecule?
**A.** The α3 was 0.20.

**Q.** What about the τ1 (NaCl 200 mM) of the same molecule?
**A.** Its τ1 is 0.77 ns.

**Q.** And the τ2 (NaCl 200 mM)?
**A.** The τ2 was 4.92 ns.

**Q.** What about the τ3 (NaCl 200 mM) of the same molecule?
**A.** The τ3 was 15.93 ns.

**Q.** What about the τf (NaCl 200 mM) of the same molecule?
**A.** The τf was 11.03 ns.

**Q.** What about the τα (NaCl 200 mM) of the same molecule?
**A.** Its τα is 4.90 ns.
